Source: patent US11530244B2, “Cyclic polypeptides for PCSK9 inhibition” (priority 2018, dated 2022)
Starred links: 1 amine or outer side, 2 acyl side, 3 side chain; linkers in the order of their positions; H or OH if unused. Positions of bridges follow the written chain, without caps; N, C: chain ends. Non-standard residues stand in square brackets, D forms with d. Residues, ends and D or L forms follow the SMILES beside them. Groups on a side chain read outwards from the residue. *: point of attachment. X43 = O=C(CC[S+]([O-])Cc1cc(F)cc(CSCCN[*:1])c1)[*:2]; X25 = O=C([C@H](Cc1cccc(OCC=[*:3])c1)N[*:1])[*:2]; Trp(5-F) = N[C@@H](Cc1c[nH]c2ccc(F)cc12)C(=O)O; NMePhe(4-F) = CN[C@@H](Cc1ccc(F)cc1)C(=O)O; X3 = O=C(CCSCc1cc(F)cc(CSCCN[*:1])c1)[*:2]; X42 = CN([C@@H](CCC=[*:3])C(=O)[*:2])[*:1]; mXylylene(5-F) = Fc1cc(C[*:1])cc(C[*:2])c1; γGlu = O=C(O)[C@H](CCC(=O)[*:2])N[*:1]; mXylylene = c1cc(C[*:1])cc(C[*:2])c1; AEF = NCCOc1ccc(C[C@H](N)C(=O)O)cc1; Palmitoyl = CCCCCCCCCCCCCCCC(=O)*; X35 = COc1cc(C[*:1])cc(C[*:2])c1; αMeP = C[C@@]1(C(=O)O)CCCN1; dDab = NCC[C@@H](N)C(=O)O; Orn = NCCC[C@H](N)C(=O)O; Aze = O=C(O)[C@@H]1CCN1; Dab = NCC[C@H](N)C(=O)O; Nva = CCC[C@H](N)C(=O)O; X2 = O=C(C[*:2])[*:1]; Aib = CC(C)(N)C(=O)O; Mpa = O=C(O)CCS

Assays:
[1] = target: PCSK9 (Homo sapiens (Human), UniProt Q8NBP7); assay: PCSK9 Alexa FRET Standard assay (displacement of AlexaFluor647 tagged cyclic peptide Reagent A); type: binding; details: PCSK9 Alexa FRET Standard assay, 0.5 nM PCSK9, 20 nM AF cyclic peptide Reagent A; read-out: IC50
PCSK9, sequence (Q8NBP7 153-692): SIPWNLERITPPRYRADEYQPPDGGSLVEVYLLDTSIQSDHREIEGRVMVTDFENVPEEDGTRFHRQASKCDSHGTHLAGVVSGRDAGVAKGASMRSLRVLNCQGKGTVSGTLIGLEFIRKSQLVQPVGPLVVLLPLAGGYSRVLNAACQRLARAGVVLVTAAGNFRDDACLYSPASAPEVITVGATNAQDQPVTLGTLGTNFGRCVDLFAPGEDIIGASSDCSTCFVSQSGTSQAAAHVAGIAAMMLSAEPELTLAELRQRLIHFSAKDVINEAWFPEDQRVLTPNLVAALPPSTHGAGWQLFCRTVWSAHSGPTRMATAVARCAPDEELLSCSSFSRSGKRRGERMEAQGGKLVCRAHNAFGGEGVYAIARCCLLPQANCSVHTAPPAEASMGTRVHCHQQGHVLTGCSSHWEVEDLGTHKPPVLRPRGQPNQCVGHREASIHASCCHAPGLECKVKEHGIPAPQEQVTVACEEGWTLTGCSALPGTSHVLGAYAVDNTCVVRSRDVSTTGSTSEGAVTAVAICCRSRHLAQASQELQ
Summary of the method: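 TR-FRET displacement: 0.5 nM biotinylated PCSK9 with 1.25 nM Strep-Eu and 20 nM AlexaFluor-tagged cyclic peptide (final) in 50 mM HEPES pH 7.4, 0.15 M NaCl, 5 mM CaCl2, 0.01% BSA, 0.01% P20, ≥2 h at room temperature. IC50 from sigmoidal fit, converted to Ki via peptide KD; falling Eu counts flagged false positives.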

[2] = target: human PCSK9 / human LDLR EGFa domain interaction (Homo sapiens (Human), UniProt Q8NBP7); assay: TR-FRET assay of inhibition of the PCSK9-LDLR protein-protein interaction; type: binding; details: TR-FRET, 20 nM human PCSK9, 20 nM human LDLR EGFa domain, 2 hours room temperature; read-out: IC50
human PCSK9 / human LDLR EGFa domain interaction, sequence (Q8NBP7 153-692): as above
human PCSK9 / human LDLR EGFa domain interaction, sequence (Q8NBP7 31-152 partner): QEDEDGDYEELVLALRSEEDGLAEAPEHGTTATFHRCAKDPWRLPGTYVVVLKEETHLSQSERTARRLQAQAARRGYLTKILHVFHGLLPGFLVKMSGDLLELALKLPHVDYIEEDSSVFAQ
Summary of the method: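 20 nM biotin-avitag PCSK9 + 20 nM His-LDLR EGFa; 5 nM Ulight-SA / 5 nM Eu-anti-His; 2 h RT; HEPES 50 mM, NaCl 150 mM, CaCl2 5 mM, 0.01% BSA, 0.01% P20. Half-maximal inhibition, 4-parameter fit.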

SMILES | IC50 [1] [nM] | IC50 [2] [nM]
COc1ccc(C[C@@H]2NC(=O)[C@H]([C@@H](C)OC)NC(=O)[C@@H]3CC/C=C/COc4cccc(c4)C[C@H](NC(=O)[C@@H](C)NC(=O)[C@H](C)NC(=O)CC[S+]([O-])Cc4cc(F)cc(c4)CSCCNC(=O)[C@]4(C)CCCN4C2=O)C(=O)N[C@@H](Cc2c[nH]c4ccc(F)cc24)C(=O)N3C)cc1 (stereo partly drawn) [Compound 507] (cyclo(A[dA][X25][Trp(5-F)][X42]T(Me)Y(Me)[αMeP][X43]); staple (E) 3-5) | 0.11 to 100 | 0.1 to 100
C[C@@H](O)[C@@H]1NC(=O)[C@@H]2CCCN2C(=O)[C@H](Cc2c[nH]c3ccc(F)cc23)NC(=O)[C@H](Cc2c[nH]c3ccc(F)cc23)NC(=O)CNC(=O)[C@H](CCCCN)NC(=O)CCSCc2cc(F)cc(c2)CSC[C@@H](C(N)=O)NC(=O)[C@]2(C)CCCN2C(=O)[C@H](Cc2ccc(O)cc2)NC1=O [Compound 043] ([Mpa]KG[Trp(5-F)][Trp(5-F)]PTY[αMeP]C-NH2; linker 1-10 via mXylylene(5-F)) | 100 to 1000 | 100 to 1000
COc1ccc(C[C@@H]2NC(=O)[C@H]([C@@H](C)OC)NC(=O)[C@@H]3CC/C=C\COc4cccc(c4)C[C@H](NC(=O)[C@@H](C)NC(=O)[C@H](C)NC(=O)CCSCc4cc(F)cc(c4)CSCCNC(=O)[C@]4(C)CCCN4C2=O)C(=O)N[C@@H](Cc2c[nH]c4ccc(F)cc24)C(=O)N3C)cc1 [Compound 505] (cyclo(A[dA][X25][Trp(5-F)][X42]T(Me)Y(Me)[αMeP][X3]); staple (Z) 3-5) |  | 100 to 1000
CCC[C@H](NC(C)=O)C(=O)N[C@@H](Cc1c[nH]cn1)C(=O)N(C)[C@@H](Cc1ccc(F)cc1)C(=O)N[C@H]1CSCc2cccc(c2)CSC[C@@H](C(N)=O)NC(=O)[C@@H]2CCCN2C(=O)[C@H](Cc2ccc(O)cc2)NC(=O)[C@H](Cc2c[nH]cn2)NC(=O)[C@H](CC(=O)O)NC(=O)[C@H](Cc2c[nH]c3ccc(F)cc23)NC(=O)[C@H](Cc2c[nH]c3ccc(F)cc23)NC(=O)CNC(=O)[C@H](CCCCN)NC1=O [Compound 143] (Ac-[Nva]H[NMePhe(4-F)]CKG[Trp(5-F)][Trp(5-F)]DHYPC-NH2; linker 4-13 via mXylylene) |  | 21000 to 50000
C[C@@H](O)[C@@H]1NC(=O)[C@@H]2CCCN2C(=O)[C@H](Cc2c[nH]c3ccc(F)cc23)NC(=O)[C@H](Cc2c[nH]c3ccc(F)cc23)NC(=O)CNC(=O)[C@H](CCCCN)NC(=O)CCSCc2cccc(c2)CSC[C@@H](C(N)=O)NC(=O)[C@]2(C)CCCN2C(=O)[C@H](Cc2ccc(O)cc2)NC1=O [Compound 014] ([Mpa]KG[Trp(5-F)][Trp(5-F)]PTY[αMeP]C-NH2; linker 1-10 via mXylylene) |  | 100 to 1000
CCCCCCCCCCCCCCCC(=O)N[C@@H](CCC(=O)N[C@@H](CCC(=O)NCC[C@H](NC(=O)[C@@H]1CSCc2cccc(c2)CSCCC(=O)N[C@@H](CCCCN)C(=O)NCC(=O)N[C@@H](Cc2c[nH]c3ccc(F)cc23)C(=O)N[C@@H](Cc2c[nH]c3ccc(F)cc23)C(=O)N[C@@H](CC(=O)O)C(=O)N[C@@H](Cc2c[nH]cn2)C(=O)N[C@@H](Cc2ccc(O)cc2)C(=O)N2CCC[C@@]2(C)C(=O)N1)C(N)=O)C(=O)O)C(=O)O [Compound 284] ([Mpa]KG[Trp(5-F)][Trp(5-F)]DHY[αMeP]C[Dab]([γGlu-γGlu-Palmitoyl])-NH2; linker 1-10 via mXylylene) |  | 21000 to 50000
COc1cc2cc(c1)CSC[C@@H](C(N)=O)NC(=O)[C@@H]1CCCN1C(=O)[C@H](Cc1ccc(O)cc1)NC(=O)[C@H](Cc1c[nH]cn1)NC(=O)[C@H](CC(=O)O)NC(=O)[C@H](Cc1c[nH]c3ccc(F)cc13)NC(=O)[C@H](Cc1c[nH]c3ccc(F)cc13)NC(=O)CNC(=O)[C@H](CCCCN)NC(=O)CCSC2 [Compound 197] ([Mpa]KG[Trp(5-F)][Trp(5-F)]DHYPC-NH2; linker 1-10 via X35) |  | 21000 to 50000
CC1(C)NC(=O)[C@H](Cc2ccc(O)cc2)NC(=O)[C@H](Cc2cnc[nH]2)NC(=O)[C@H](CC(=O)O)NC(=O)[C@H](Cc2c[nH]c3ccc(F)cc23)NC(=O)[C@H](Cc2c[nH]c3ccc(F)cc23)NC(=O)CNC(=O)[C@H](CCCCN)NC(=O)CCSCc2cccc(c2)CSC[C@@H](C(N)=O)NC1=O [Compound 218] ([Mpa]KG[Trp(5-F)][Trp(5-F)]DHY[Aib]C-NH2; linker 1-10 via mXylylene) |  | 100 to 1000
COc1ccc(C[C@@H]2NC(=O)[C@H]([C@@H](C)OC)NC(=O)[C@@H]3CC/C=C/COc4cccc(c4)C[C@H](NC(=O)[C@@H](C)NC(=O)[C@H](C)NC(=O)CCSCc4cc(F)cc(c4)CSCCNC(=O)[C@]4(C)CCCN4C2=O)C(=O)N[C@@H](Cc2c[nH]c4ccc(F)cc24)C(=O)N3C)cc1 [Compound 504] (cyclo(A[dA][X25][Trp(5-F)][X42]T(Me)Y(Me)[αMeP][X3]); staple (E) 3-5) |  | 100 to 1000

Further lines, results first:

IC50 [1] [nM] | IC50 [2] [nM] | SMILES
100 to 1000 | 100 to 1000 | C[C@@]12CCCN1C(=O)[C@H](Cc1ccc(O)cc1)NC(=O)[C@H](Cc1cnc[nH]1)NC(=O)[C@H](CC(=O)O)NC(=O)[C@H](Cc1c[nH]c3ccc(F)cc13)NC(=O)[C@H](Cc1c[nH]c3ccc(F)cc13)NC(=O)CNC(=O)[C@@H](CCN)NC(=O)CCSCc1cccc(c1)CSC[C@@H](C(N)=O)NC2=O [Compound 355] ([Mpa][dDab]G[Trp(5-F)][Trp(5-F)]DHY[αMeP]C-NH2; linker 1-10 via mXylylene)
100 to 1000 | 0.1 to 100 | CC(C)C[C@H]1NC(=O)[C@H](CCCCN)NC(=O)CCSCc2cccc(c2)CSC[C@@H](C(N)=O)NC(=O)[C@]2(C)CCCN2C(=O)[C@H](Cc2ccc(O)cc2)NC(=O)[C@H](Cc2cnc[nH]2)NC(=O)[C@H](CC(=O)O)NC(=O)[C@H](Cc2c[nH]c3ccc(F)cc23)NC(=O)[C@H](Cc2c[nH]c3ccc(F)cc23)NC1=O [Compound 373] ([Mpa]K[dL][Trp(5-F)][Trp(5-F)]DHY[αMeP]C-NH2; linker 1-10 via mXylylene)
1000 to 12100 | 100 to 1000 | CC(=O)N[C@H]1CCC(=O)NCCOc2ccc(cc2)C[C@@H](C(N)=O)NC(=O)[C@]2(C)CCCN2C(=O)[C@H](Cc2ccc(O)cc2)NC(=O)[C@H](Cc2c[nH]cn2)NC(=O)[C@H](CC(=O)O)NC(=O)[C@H](Cc2c[nH]c3ccc(F)cc23)NC(=O)[C@H](Cc2c[nH]c3ccc(F)cc23)NC(=O)CNC(=O)[C@H](C)NC1=O [Compound 311] (Ac-EAG[Trp(5-F)][Trp(5-F)]DHY[αMeP][AEF]-NH2; lactam 1-10)
100 to 1000 | 100 to 1000 | CC(=O)N[C@H]1CCCNC(=O)COc2ccc(cc2)C[C@@H](C(N)=O)NC(=O)[C@]2(C)CCCN2C(=O)[C@H](Cc2ccc(O)cc2)NC(=O)[C@H](Cc2cnc[nH]2)NC(=O)[C@H](CC(=O)O)NC(=O)[C@H](Cc2c[nH]c3ccc(F)cc23)NC(=O)[C@H](Cc2c[nH]c3ccc(F)cc23)NC(=O)CNC(=O)[C@H](C)NC1=O [Compound 364] (Ac-[Orn]AG[Trp(5-F)][Trp(5-F)]DHY[αMeP]Y-NH2; linker 1-10 via X2)
 | 100 to 1000 | C[C@H]1NC(=O)[C@H](Cc2c[nH]c3ccc(F)cc23)NC(=O)[C@H](Cc2c[nH]c3ccc(F)cc23)NC(=O)CNC(=O)[C@H](CCCCN)NC(=O)CCSCc2cccc(c2)CSC[C@@H](C(N)=O)NC(=O)[C@]2(C)CCCN2C(=O)[C@H](Cc2ccc(O)cc2)NC(=O)[C@H](Cc2cnc[nH]2)NC1=O [Compound 032] ([Mpa]KG[Trp(5-F)][Trp(5-F)][dA]HY[αMeP]C-NH2; linker 1-10 via mXylylene)
 | 21000 to 50000 | NCCCC[C@@H]1NC(=O)CCSCc2cccc(c2)CSC[C@@H](C(N)=O)NC(=O)[C@@H]2CCN2C(=O)[C@H](Cc2ccc(O)cc2)NC(=O)[C@H](Cc2cnc[nH]2)NC(=O)[C@H](CC(=O)O)NC(=O)[C@H](Cc2c[nH]c3ccc(F)cc23)NC(=O)[C@H](Cc2c[nH]c3ccc(F)cc23)NC(=O)CNC1=O [Compound 207] ([Mpa]KG[Trp(5-F)][Trp(5-F)]DHY[Aze]C-NH2; linker 1-10 via mXylylene)
 | 21000 to 50000 | C[C@H]1NC(=O)[C@H](Cc2ccc(O)cc2)NC(=O)[C@H](Cc2cnc[nH]2)NC(=O)[C@H](CC(=O)O)NC(=O)[C@H](Cc2c[nH]c3ccc(F)cc23)NC(=O)[C@H](Cc2c[nH]c3ccc(F)cc23)NC(=O)CNC(=O)[C@H](CCCCN)NC(=O)CCSCc2cccc(c2)CSC[C@@H](C(N)=O)NC1=O [Compound 320] ([Mpa]KG[Trp(5-F)][Trp(5-F)]DHY[dA]C-NH2; linker 1-10 via mXylylene)
 | 1000 to 12100 | CCC[C@H](NC(C)=O)C(=O)N[C@H](Cc1c[nH]cn1)C(=O)N(C)[C@@H](Cc1ccc(F)cc1)C(=O)N[C@H]1CSCc2cccc(c2)CSC[C@@H](C(N)=O)NC(=O)[C@@H]2CCCN2C(=O)[C@H](Cc2ccc(O)cc2)NC(=O)[C@H](Cc2c[nH]cn2)NC(=O)[C@H](CC(=O)O)NC(=O)[C@H](Cc2c[nH]c3ccc(F)cc23)NC(=O)[C@H](Cc2c[nH]c3ccc(F)cc23)NC(=O)CNC(=O)[C@H](CCCCN)NC1=O [Compound 144] (Ac-[Nva][dH][NMePhe(4-F)]CKG[Trp(5-F)][Trp(5-F)]DHYPC-NH2; linker 4-13 via mXylylene)
 | 21000 to 50000 | CC(=O)N[C@H]1CSCc2cccc(c2)CSC[C@@H](C(N)=O)NC(=O)[C@@H]2CCCN2C(=O)[C@H](Cc2ccc(O)cc2)NC(=O)[C@H](Cc2c[nH]cn2)NC(=O)[C@H](CC(=O)O)NC(=O)[C@H](Cc2c[nH]c3ccc(F)cc23)NC(=O)[C@H](Cc2c[nH]c3ccccc23)NC(=O)CNC(=O)[C@H](CCCCN)NC1=O [Compound 176] (Ac-CKGW[Trp(5-F)]DHYPC-NH2; linker 1-10 via mXylylene)
